# Measured values: ChEMBL document CHEMBL1201862, “PubChem BioAssay data set” (2004)
# The source made the active and inactive calls.
# What was measured:
# [1] = A Cell Based Secondary Assay To Explore Cytotoxicity of Compounds that Sensitize Mycobacterium Tuberculosis to Beta-Lactam Antibiotics.; type: functional
# [2] = target: Neurotensin receptor type 1 (Homo sapiens, UniProt P30989); type: functional;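 also: Image-based confirmatory dose-response assay measuring agonist activity at NTR1; NTR1-expressing U2OS osteosarcoma cells imaged for beta-arrestin GFP spot formation; agonist potency where compounds increase beta-arrestin recruitment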
# Sequence of Neurotensin receptor type 1 (P30989 whole entry): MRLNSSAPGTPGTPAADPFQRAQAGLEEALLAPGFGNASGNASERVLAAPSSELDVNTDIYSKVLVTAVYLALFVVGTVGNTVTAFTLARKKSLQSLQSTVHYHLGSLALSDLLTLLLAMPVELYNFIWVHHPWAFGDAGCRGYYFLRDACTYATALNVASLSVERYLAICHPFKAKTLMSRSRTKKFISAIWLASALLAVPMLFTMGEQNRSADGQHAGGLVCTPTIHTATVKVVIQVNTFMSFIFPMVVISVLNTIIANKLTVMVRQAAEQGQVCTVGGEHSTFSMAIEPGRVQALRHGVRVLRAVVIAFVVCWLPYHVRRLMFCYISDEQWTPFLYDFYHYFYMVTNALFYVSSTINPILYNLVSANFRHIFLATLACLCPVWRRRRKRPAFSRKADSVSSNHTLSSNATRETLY
# [3] = target: T1, Heat shock factor protein 1 (Mus musculus, UniProt P38532); experiment: decrease of HSF1-responsive luciferase luminescence – cell-based, NIH3T3, dose retest, confirmation (AID 2382); type: functional;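 also: NIH3T3 fibroblasts with HSF1-driven luciferase reporter stressed by proteasome inhibitor MG132; luminescence from HSF1-driven luciferase expression after 8 hours of MG132 stress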
# T1 sequence (P38532 whole entry): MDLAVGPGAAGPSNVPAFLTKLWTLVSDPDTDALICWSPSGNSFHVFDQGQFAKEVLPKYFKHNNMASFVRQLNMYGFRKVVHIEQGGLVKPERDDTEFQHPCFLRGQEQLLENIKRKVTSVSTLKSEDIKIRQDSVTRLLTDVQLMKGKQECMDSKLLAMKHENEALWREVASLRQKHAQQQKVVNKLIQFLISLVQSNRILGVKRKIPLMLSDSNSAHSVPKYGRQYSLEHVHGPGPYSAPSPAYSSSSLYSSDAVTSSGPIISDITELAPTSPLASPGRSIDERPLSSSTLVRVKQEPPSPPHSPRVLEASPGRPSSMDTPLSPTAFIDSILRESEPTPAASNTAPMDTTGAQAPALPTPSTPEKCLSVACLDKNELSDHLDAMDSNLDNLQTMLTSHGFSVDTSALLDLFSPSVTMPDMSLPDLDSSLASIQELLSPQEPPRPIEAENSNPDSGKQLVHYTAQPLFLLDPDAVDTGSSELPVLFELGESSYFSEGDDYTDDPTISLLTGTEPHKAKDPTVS
# Estrogen receptor = target: T2, Estrogen receptor (Homo sapiens, UniProt P03372);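 also: potency for inhibiting coactivator peptide recruitment to the receptor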
# T2 sequence (P03372 whole entry): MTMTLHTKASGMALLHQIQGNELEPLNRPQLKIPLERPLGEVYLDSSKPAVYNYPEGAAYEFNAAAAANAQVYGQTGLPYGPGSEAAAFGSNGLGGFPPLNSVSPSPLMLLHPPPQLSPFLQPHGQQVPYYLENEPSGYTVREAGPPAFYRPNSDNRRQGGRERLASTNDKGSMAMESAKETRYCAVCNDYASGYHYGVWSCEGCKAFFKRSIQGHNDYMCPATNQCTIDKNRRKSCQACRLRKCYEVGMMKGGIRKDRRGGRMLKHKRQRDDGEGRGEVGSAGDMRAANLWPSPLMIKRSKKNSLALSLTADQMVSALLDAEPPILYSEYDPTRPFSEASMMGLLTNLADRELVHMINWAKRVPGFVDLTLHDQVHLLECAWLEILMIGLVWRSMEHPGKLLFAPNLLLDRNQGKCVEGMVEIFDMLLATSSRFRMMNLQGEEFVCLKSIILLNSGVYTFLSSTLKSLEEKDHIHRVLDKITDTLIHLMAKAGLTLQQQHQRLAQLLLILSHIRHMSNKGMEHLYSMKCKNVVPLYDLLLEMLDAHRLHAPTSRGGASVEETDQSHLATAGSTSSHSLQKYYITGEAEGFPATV
# Estrogen receptor beta = Estrogen receptor beta (Homo sapiens, UniProt Q92731);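 also: recombinant ER-beta bound to coactivator SRC1 peptide in presence of estradiol agonist; inhibitors block coactivator peptide binding and lower the FRET signal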
# Sequence of Estrogen receptor beta (Q92731 whole entry): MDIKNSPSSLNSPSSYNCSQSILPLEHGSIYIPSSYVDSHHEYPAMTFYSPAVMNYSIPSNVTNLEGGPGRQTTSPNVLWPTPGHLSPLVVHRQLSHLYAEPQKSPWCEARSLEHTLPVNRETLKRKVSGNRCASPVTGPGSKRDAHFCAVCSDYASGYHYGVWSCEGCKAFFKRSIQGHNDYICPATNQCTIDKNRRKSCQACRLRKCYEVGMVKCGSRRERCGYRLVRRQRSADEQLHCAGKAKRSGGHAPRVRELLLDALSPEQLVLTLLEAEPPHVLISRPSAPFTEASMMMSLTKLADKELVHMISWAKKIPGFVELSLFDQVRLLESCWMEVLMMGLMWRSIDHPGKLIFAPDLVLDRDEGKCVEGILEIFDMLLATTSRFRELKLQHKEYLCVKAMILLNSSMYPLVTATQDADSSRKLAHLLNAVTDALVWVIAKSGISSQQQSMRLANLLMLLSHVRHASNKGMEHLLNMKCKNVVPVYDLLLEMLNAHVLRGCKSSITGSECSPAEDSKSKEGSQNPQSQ
# Cytochrome P450 3A4 = Cytochrome P450 3A4 (Homo sapiens, UniProt P08684); conditions: Potency;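 also: confirmatory qHTS run detecting inhibitors and substrates of CYP3A4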
# Sequence of Cytochrome P450 3A4 (P08684 whole entry): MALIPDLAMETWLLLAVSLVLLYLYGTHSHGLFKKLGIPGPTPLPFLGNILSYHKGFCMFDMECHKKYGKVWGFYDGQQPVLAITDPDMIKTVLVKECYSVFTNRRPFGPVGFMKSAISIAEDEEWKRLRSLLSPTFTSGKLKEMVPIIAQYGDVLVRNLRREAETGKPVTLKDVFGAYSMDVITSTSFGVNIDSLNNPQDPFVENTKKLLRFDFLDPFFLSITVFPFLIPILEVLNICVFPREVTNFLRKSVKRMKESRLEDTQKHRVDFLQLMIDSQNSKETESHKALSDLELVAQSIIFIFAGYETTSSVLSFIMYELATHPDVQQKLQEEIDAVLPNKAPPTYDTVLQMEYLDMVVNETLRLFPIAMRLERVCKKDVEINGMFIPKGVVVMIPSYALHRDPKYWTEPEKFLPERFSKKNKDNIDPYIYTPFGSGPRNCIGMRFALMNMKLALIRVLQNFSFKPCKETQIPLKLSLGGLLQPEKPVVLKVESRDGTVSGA
# [4] = luciferase reporter signal suppression in cells – H4 neuroglioma cells, luminescence, dose response (AID 1990); type: functional, cell-based
# [5] = luciferase reporter signal reduction – luminescence, H4-C neuroglioblastoma cells, dose response (AID 2458); type: functional, cell-based;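 also: H4 neuroglioblastoma cells stably carrying a luciferase reporter gene fusion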
# BJ [6] = experiment: BJ-TERT fibroblast viability loss – cell-based, RAS-independent, luminescence, dose response (AID 1933); type: functional; conditions: Homo sapiens
# cells = type: functional, cell-based
# [7] = Luminescence Cell-Based Dose Response HTS to Identify Inhibitors of 5'UTR Stem-Loop Driven Prion Protein mRNA Translation in H4 Neuroglioblastoma Cells. [Related pubchem assays: 1827 (Project Summary), 1813 (Primary HTS)]; type: functional
# [8] = alpha-synuclein stem-loop luciferase translation blockers – H4 neuroglioma cells, luminescence, confirmation (AID 1988); type: functional, cell-based
# BJ [9] = experiment: cells; type: functional, cell-based; conditions: Homo sapiens
# BJ [10] = experiment: BJ-TERT-LT-ST fibroblast viability loss – cell-based, RAS-independent, luminescence, dose response (AID 1935); type: functional; conditions: Homo sapiens;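 also: BJ fibroblasts immortalized with TERT plus LT and ST oncogenes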
# [11] = DRD fibroblast viability loss – cell-based, non-viral oncogenic, luminescence, dose response (AID 1934); type: functional; conditions: Homo sapiens
# [12] = alpha-synuclein stem-loop translation blockers – luminescence, H4 neuroglioblastoma cells, dose confirmation, confirmation (AID 2454); type: functional, cell-based;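 also: H4 neuroglioblastoma cells carrying an alpha-synuclein 5'UTR luciferase reporter; potency for inhibition of the luciferase signal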
# [13] = target: T3, Neuropeptide Y receptor type 1 (Homo sapiens, UniProt P25929); type: functional;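 also: HEK293 cells with a CNG channel challenged with NPY then isoproterenol; potency as antagonist that reverses NPY suppression of cAMP signal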
# T3 sequence (P25929 whole entry): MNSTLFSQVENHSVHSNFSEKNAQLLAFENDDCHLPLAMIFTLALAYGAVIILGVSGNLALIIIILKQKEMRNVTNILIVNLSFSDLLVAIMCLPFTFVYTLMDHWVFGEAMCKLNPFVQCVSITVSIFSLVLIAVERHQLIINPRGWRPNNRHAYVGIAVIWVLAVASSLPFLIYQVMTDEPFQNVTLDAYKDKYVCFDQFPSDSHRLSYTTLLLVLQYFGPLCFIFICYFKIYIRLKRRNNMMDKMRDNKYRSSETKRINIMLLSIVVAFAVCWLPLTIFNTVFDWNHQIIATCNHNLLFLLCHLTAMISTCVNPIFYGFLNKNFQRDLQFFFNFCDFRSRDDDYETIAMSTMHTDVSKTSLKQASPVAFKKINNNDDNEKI
# [14] = target: T4, Neuropeptide Y receptor type 2 (Homo sapiens, UniProt P49146); type: functional, cell-based;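 also: HEK293 cells expressing the receptor and a CNG channel; stimulus was NPY near EC95 followed by isoproterenol to raise cAMP; antagonist potency measured as restoring cAMP signal that NPY suppresses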
# T4 sequence (P49146 whole entry): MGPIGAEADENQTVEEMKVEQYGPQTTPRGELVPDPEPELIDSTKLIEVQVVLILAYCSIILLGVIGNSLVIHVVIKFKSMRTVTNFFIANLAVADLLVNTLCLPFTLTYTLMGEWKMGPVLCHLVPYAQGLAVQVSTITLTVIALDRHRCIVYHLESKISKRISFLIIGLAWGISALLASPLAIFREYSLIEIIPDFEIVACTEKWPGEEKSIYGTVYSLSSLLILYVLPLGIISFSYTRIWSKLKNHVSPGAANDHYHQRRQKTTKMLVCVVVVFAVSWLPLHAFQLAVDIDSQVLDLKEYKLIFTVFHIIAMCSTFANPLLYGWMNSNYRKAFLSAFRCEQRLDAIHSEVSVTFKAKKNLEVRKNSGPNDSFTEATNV
# [15] = target: Melanin-concentrating hormone receptor 1 (Homo sapiens, UniProt Q99705); experiment: Late-stage fluorescence-based counterscreen for antagonists of the G-protein coupled receptor 7 (GPR7): cell-based dose response assay to identify antagonists of the melanin-concentrating hormone receptor 1 (MCHR1). [Related pubchem assays (depositor defined):AID1861, AID1880, AID1952, AID2148, AID2251, AID2257, AID485339]; type: functional;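 also: stimulated with 30 nM MCH peptide agonist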
# Sequence of Melanin-concentrating hormone receptor 1 (Q99705 whole entry): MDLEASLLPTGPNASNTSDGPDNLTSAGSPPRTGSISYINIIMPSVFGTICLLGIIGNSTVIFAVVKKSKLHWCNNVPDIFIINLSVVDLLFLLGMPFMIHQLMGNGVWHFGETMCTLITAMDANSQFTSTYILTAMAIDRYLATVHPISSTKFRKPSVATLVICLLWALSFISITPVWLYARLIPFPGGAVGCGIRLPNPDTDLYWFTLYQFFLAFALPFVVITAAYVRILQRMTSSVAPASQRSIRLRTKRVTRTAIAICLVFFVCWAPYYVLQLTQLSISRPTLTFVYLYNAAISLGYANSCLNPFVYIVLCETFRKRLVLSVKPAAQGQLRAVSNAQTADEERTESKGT
compound,measurement,setting,value
C=C(C)COc1ccc2c(C)c(C)c(=O)oc2c1OCC(=C)C,CC50,[1],> 40 µM (active)
COc1cccc(/C=C/C(=O)c2cccc([N+](=O)[O-])c2)c1OC,EC50,[2],9.39 µM (active)
COc1ccc(NC(=O)c2ccco2)cc1N,EC50,[3],> 195 µM (not active)
same,IC50,Estrogen receptor,36.1 µM (not active)
same,IC50,Estrogen receptor beta,10.7 µM (active)
C(#CC1C=CC2OC(c3ccccc3)OCC2O1)c1ccccc1 (centres undefined),AC50,Cytochrome P450 3A4,2.51 µM (inconclusive)
Brc1ccc(C2=Nn3c(nnc3-c3[nH]nc4c3CCC4)SC2)cc1,EC50,[4],11.9 µM (active)
same,EC50,[5],> 3.8 µM (not active)
same,EC50,BJ [6],2.33 µM (active)
same,EC50,cells,2.12 µM (active)
same,EC50,[7],> 120 µM (not active)
same,EC50,[8],< 0.1 µM (active)
same,EC50,BJ [9],43.5 µM (active)
same,EC50,BJ [10],138 µM (inconclusive)
same,EC50,[11],1.65 µM (active)
same,EC50,[12],1.97 µM (active)
O=C(O)CSc1nnc(-c2ccc3c(c2)OCO3)o1,IC50,[13],> 35 µM (not active)
same,IC50,[14],> 35 µM (not active)
CCOc1ccc(Oc2c(Br)cnn(-c3ccc(C(C)C)cc3)c2=O)cc1,IC50,[15],3.1 µM (active)
COC(=O)[C@@]1(C)C=C[C@@H](Cc2ccccc2)N1C(=O)c1ccccc1,AC50,Cytochrome P450 3A4,20 µM (inconclusive)
CCc1ccc2oc(-c3cc(N)cc(C)c3O)nc2c1,CC50,[1],> 40 µM (active)
O=C(COC(=O)c1ccc(-c2ccccc2)cc1)Nc1ccccc1-c1ccccc1,IC50,[13],5.72 µM (active)
same,IC50,[14],6.97 µM (active)
COC(=O)c1c(CSc2cccc(C)c2)noc1C(=O)NCc1ccco1,CC50,[1],> 40 µM (active)
